Source: patent US8664221B2 (Santen Pharmaceutical Co., Ltd., priority 2008, dated 2014)

Columns and labels:
[1] = system: allergic conjunctivitis model in mice; assay: Inhibitory effect on vascular hyper-permeability in allergic conjunctivitis model; assay type: in vivo; details: male BALB/c mice, ovalbumin-sensitized; 1% (W/V) suspension instilled 15 min, 1 hr and 3 hrs before ovalbumin; Evans blue dye leakage; mean of 6 eyes
Protocol: In order to evaluate anti-allergic effect of the present compound, the inhibitory effect on the vascular hyper-permeability in allergic conjunctivitis model in mice was examined. This effect was calculated based on dye leakages of vehicle-treated group (control group) and test compound-treated group.
By adding 0.5% polysorbate 80/saline to the test compound, a 1% (W/V) test compound suspension was prepared.
1) Ovalbumin absorbed on aluminum hydroxide gel was dissolved in saline (20 μg ovalbumin/mL), and male BALB/c mice, 6 weeks old, were actively sensitized to the antigen by intraperitoneal injections of 500 μL of it.
2) On the 6th day from sensitization, sensitized mice were boosted by additional intraperitoneal injections of 500 μL ovalbumin absorbed on aluminum hydroxide gel (20 μg ovalbumin/mL).
3) On the 11th day, 12th day, 13th day, 14th day and 15th day from the first sensitization, allergic conjunctivitis were induced by instillations to the right eyes of the mice of […] of 50% glycerol solution containing 15% (W/V) ovalbumin.
4) […] of test compound suspension per eye was instilled to the right eye of the above mice 15 min, 1 hr and 3 hrs before ovalbumin instillation (three times) on the 15th day from sensitization. In vehicle-treated group (control group), the mice were instilled with 0.5% polysorbate 80/saline in substitution for test compound suspension.
5) Just before ovalbumin instillation on the 15th day from sensitization, all animals received a tail intravenous injection of 0.1% Evans blue dye. The right periocular tissues of the mice, which were the leaked parts of dye, were collected 30 min after ovalbumin instillation. The dye was extracted from the tissues with the dye extraction liquid. Then the absorbance of the dye extract was measured. The dye leakage was calculated from the absorbance value, and the inhibition ratio of the vascular hyper-permeability of test compound-treated group was calculated according to calculation equation 1. The inhibition ratio of the vascular hyper-permeability of test compound-treated group (%)=(1−Ax/Ao)×100 (Calculation Equation 1) • Ao: Dye leakage in vehicle-treated group (control group) • Ax: Dye leakage in test compound-treated group (Test Results and Discussion)

[2] = system: IL-6 production induced by lipopolysaccharide (LPS) in human corneal epithelial cells (HCE-T); assay: Inhibition of LPS-induced IL-6 production in human corneal epithelial cells (GR agonist activity); assay type: cell-based; details: Corneal epithelial cell, 10 μL of 100 μM test compound solution per well, 4 hours incubation, efficacy relative to DEX
Protocol: In order to evaluate a GR agonist activity of the present compound, the inhibitory effects on the IL-6 production induced by lipopolysaccharide (LPS) in human corneal epithelial cells. IL-6 levels in the conditioned medium were measured using the HTRF human IL-6 Kit (boehringer-Ingelheim, Cat No. 62IL6PEB), and the procedure was carried out according to the protocol attached to the kit. Hereinafter, the specific method will be described.
LPS solution: After LPS was dissolved in phosphate buffer solution (hereinafter referred to as PBS(−)), the resulting solution was diluted with 10% FBS-DMEM/F12 medium, whereby a 1 μg/mL LPS solution was prepared.
After a test compound was dissolved in dimethylsulfoxide (hereinafter referred to as DMSO), the resulting solution was diluted with 10% FBS-DMEM/F12 medium, whereby a 100 μM test compound solution was prepared. A 100 μM DEX solution was prepared by the same method, and the inhibitory ratio of IL-6 production of DEX was evaluated to use for calculating efficacy (% DEX).
Used cell: SV40-immortalized human corneal epithelial cells (HCE-T) (RIKEN)
1) HCE-T cells were harvested, and seeded at 2.0×10^4 cells/0.1 mL/well in a 96-well plate.
2) After incubation overnight, the medium was removed and a 80 μL of new 10% FBS-DMEM/Ham's F12 medium was added into each well.
3) A 10 μL of test compounds solution was added into each well.
4) A 10 μL of LPS solution was added into each well.
5) As a negative control, a 10 μL of 10% FBS-DMEM/Ham's F12 medium was added into each well instead of a test compound solution and a LPS solution.
6) As a positive control, a 10 μL of 10% FBS-DMEM/Ham's F12 medium containing 1% DMSO was added into each well instead of a test compound solution.
7) After 4 hours incubation, supernatants were collected and IL-6 levels in the supernatants were quantitated using the HTRF human IL-6 Kit.
8) The inhibition ratio of IL-6 production (%) was calculated according to the following equation.
The inhibition ratio of IL-6 production (%) was calculated according to the following equation. The inhibition ratio of IL-6 production (%)=100×{1−(IL-6 level in each group−mean value of IL-6 level in negative control)/(mean value of IL-6 level in positive control−mean value of IL-6 level in negative control)} (%)
Furthermore, the inhibition ratio of IL-6 production (efficacy (% DEX)) was also calculated according to the following equation. Efficacy(% DEX)=100×{(mean value of IL-6 inhibition in compound-treated group)/(mean value of IL-6 inhibition in DEX-treated group)} (%) (Results and Discussion)

Structure (SMILES): CCCS(=O)(=O)Oc1ccc(-c2ccc3c(c2COc2cc(F)ccc2C)N(C)C(=O)C(C)(C)N3)c(OC)c1 [Compound No. 1-2, 8-(5-Fluoro-2-methylphenoxymethyl)-7-(2-methoxy-4-propyl-sulfonyloxyphenyl)-1,3,3-trimethyl-3,4-dihydro-1H-quinoxalin-2-one]
- The inhibition ratio of the vascular hyper-permeability (%) [1]: 37%
- Emax [2]: 91%

Structure (SMILES): CCCCS(=O)(=O)Oc1ccc(-c2ccc3c(c2COc2cc(F)ccc2C)N(C)C(=O)C(C)(C)N3)c(OC)c1 [Compound No. 1-5, 7-(4-Butylsulfonyloxy-2-methoxyphenyl)-8-(5-fluoro-2-methyl-phenoxymethyl)-1,3,3-trimethyl-3,4-dihydro-1H-quinoxalin-2-one]
- The inhibition ratio of the vascular hyper-permeability (%) [1]: 30%
- Emax [2]: 88%

Structure (SMILES): COc1cc(OS(=O)(=O)CC(C)C)ccc1-c1ccc2c(c1COc1cc(F)ccc1C)N(C)C(=O)C(C)(C)N2 [Compound No. 1-11, 8-(5-Fluoro-2-methylphenoxymethyl)-7-(4-isobutylsulfonyloxy-2-methoxyphenyl)-1,3,3-trimethyl-3,4-dihydro-1H-quinoxalin-2-one]
- The inhibition ratio of the vascular hyper-permeability (%) [1]: 20%
- Emax [2]: 99%

Structure (SMILES): COc1cc(OS(=O)(=O)CCC(F)(F)F)ccc1-c1ccc2c(c1COc1cc(F)ccc1C)N(C)C(=O)C(C)(C)N2 [Compound No. 1-12, 8-(5-Fluoro-2-methylphenoxymethyl)-7-[2-methoxy-4-(3,3,3-trifluoro-propylsulfonyloxy)phenyl]-1,3,3-trimethyl-3,4-dihydro-1H-quinoxlin-2-one]
- The inhibition ratio of the vascular hyper-permeability (%) [1]: 15%
- Emax [2]: 100%

Structure (SMILES): COc1cc(OS(=O)(=O)C2CCCC2)ccc1-c1ccc2c(c1COc1cc(F)ccc1C)N(C)C(=O)C(C)(C)N2 [Compound No. 1-16, 7-(4-Cyclopentylsulfonyloxy-2-methoxyphenyl)-8-(5-f1uoro-2-methylphenoxymethyl)-1,3,3-trimethly-3,4-dihydro-1H-quinoxalin-2-one]
- The inhibition ratio of the vascular hyper-permeability (%) [1]: 18%
- Emax [2]: 91%

Structure (SMILES): CCCS(=O)(=O)Oc1ccc(-c2ccc3c(c2COC(=O)c2ccc(C)s2)N(C)C(=O)C(C)(C)N3)c(OC)c1 [Compound No. 1-22, 7-(2-Methoxy-4-propylsulfonyloxyphenyl)-8-(5-methylthiophen-2-ylcarbonyloxymethyl)-1,3,3-trimethyl-3,4-dihydro-1H-quinoxalin-2-one]
- The inhibition ratio of the vascular hyper-permeability (%) [1]: 21%
- Emax [2]: 99%

Structure (SMILES): COc1cc(OS(=O)(=O)C(C)C)ccc1-c1ccc2c(c1COC(=O)c1ccc(C)s1)N(C)C(=O)C(C)(C)N2 [Compound No. 1-23, 7-(4-Isopropylsulfonyloxy-2-methoxyphenyl)-8-(5-methylthiophen-2-ylcarbonyloxymethyl)-1,3,3-trimethyl-3,4-dihydro-1H-quinoxalin-2-one]
- The inhibition ratio of the vascular hyper-permeability (%) [1]: 10%
- Emax [2]: 83%

Structure (SMILES): CCCS(=O)(=O)Oc1ccc(-c2ccc3c(c2CNc2cc(F)ccc2C)N(C)C(=O)C(C)(C)N3)c(OC)c1 [Compound No. 1-44, 8-(5-Fluoro-2-methylphenylaminomethyl)-7-(2-methoxy-4-propyl-sulfonyloxyphenyl)-1,3,3-trimethyl-3,4-dihydro-1H-quinoxalin-2-one]
- The inhibition ratio of the vascular hyper-permeability (%) [1]: 22%
- Emax [2]: 88%

Structure (SMILES): COc1ccccc1NCc1c(-c2ccc(OS(=O)(=O)C3CCCC3)cc2OC)ccc2c1N(C)C(=O)C(C)(C)N2 [Compound No. 2-6, 7-(4-Cyclopentylsulfonyloxy-2-methoxypheny1)-8-(2-methoxyphenylaminomethyl)-1,3,3-trimethyl-3,4-dihydro-1H-quinoxalin-2-one]
- The inhibition ratio of the vascular hyper-permeability (%) [1]: 13%
- Emax [2]: 82%
